Laboratory results as given in ChEMBL document CHEMBL3286214, “Tyrosinase inhibitory activity of a glucosylated hydroxystilbene in mouse melan-a melanocytes” (J Nat Prod, 2014).
Active and inactive are the calls of the source. The calls are words filed in the database; no cut-off is given here.

Assays:
Tyrosinase [1] = biological target: T1, Tyrosinase (Mus musculus, UniProt P11344); assay: Inhibition of tyrosinase in mouse Melan-a cells assessed as decrease in L-DOPA Vmax at 120 uM by Lineweaver-Burk plot; assay type: cell-based
T1 sequence (P11344 whole entry): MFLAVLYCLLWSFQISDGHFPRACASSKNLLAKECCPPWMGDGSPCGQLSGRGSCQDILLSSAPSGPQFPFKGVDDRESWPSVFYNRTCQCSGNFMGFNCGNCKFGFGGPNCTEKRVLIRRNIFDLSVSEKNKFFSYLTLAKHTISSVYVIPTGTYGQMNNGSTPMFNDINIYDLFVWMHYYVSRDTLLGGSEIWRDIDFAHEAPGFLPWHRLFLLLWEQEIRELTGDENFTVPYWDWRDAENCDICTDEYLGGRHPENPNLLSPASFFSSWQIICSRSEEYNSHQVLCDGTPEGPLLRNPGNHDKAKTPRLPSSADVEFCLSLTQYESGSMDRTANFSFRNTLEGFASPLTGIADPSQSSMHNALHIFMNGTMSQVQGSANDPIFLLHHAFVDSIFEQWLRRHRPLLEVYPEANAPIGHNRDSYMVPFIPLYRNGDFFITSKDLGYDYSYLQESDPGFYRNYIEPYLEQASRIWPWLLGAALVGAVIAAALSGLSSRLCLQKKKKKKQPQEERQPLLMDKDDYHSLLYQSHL

[2] = biological target: T2, Tyrosinase (Mus musculus) (UniProt P11344); assay: Inhibition of tyrosinase in mouse Melan-a cells assessed as decrease in L-DOPA Vmax by Lineweaver-Burk plot; assay type: cell-based
T2 sequence (whole entry): T1 sequence (P11344 whole entry)

Tyrosinase [3] = biological target: T1, Tyrosinase; assay: Inhibition of tyrosinase in mouse Melan-a cells assessed as decrease in L-DOPA Vmax at 240 uM by Lineweaver-Burk plot; assay type: cell-based
[4] = biological target: T2, Tyrosinase (Mus musculus); assay: Inhibition of tyrosinase in mouse Melan-a cells after 3 days by L-DOPA oxidation assay in presence of 20 nM TPA melanogenesis inducer; assay type: cell-based
[5] = biological target: T2, Tyrosinase (Mus musculus); assay: Inhibition of tyrosinase in mouse Melan-a cells after 3 days by L-DOPA oxidation assay in presence of 1 uM forskolin melanogenesis inducer; assay type: cell-based
[6] = biological target: T2, Tyrosinase (Mus musculus); assay: Inhibition of tyrosinase in mouse Melan-a at 60 uM after 3 days by L-DOPA oxidation assay in presence of 1 uM forskolin melanogenesis inducer (reference value: 162%); design: scale not given: the % may be the effect or the level left
Melan-a [7] = assay: Effect on tyrosinase localization in mouse Melan-a cells assessed as endoplasmic reticulum trapping at 60 uM incubated for 3 days by confocal immunofluorescence microscopy; assay type: functional, cell-based
Melan-a [8] = assay: Effect on tyrosinase localization in mouse Melan-a cells assessed as lysosome at 60 uM incubated for 3 days by confocal immunofluorescence microscopy; assay type: functional, cell-based
Melan-a [9] = assay: Effect on tyrosinase maturation in mouse Melan-a cells assessed as immature Endo H-sensitive form measured in endoplasmic reticulum using forskolin-supplemented medium at 60 to 120 uM by Western blotting analysis; assay type: functional, cell-based
[10] = Suppression of MITF expression in mouse Melan-a cells using forskolin-supplemented medium incubated for 1 day by Western blotting analysis; assay type: functional, cell-based
[11] = Suppression of TRP1 expression in mouse Melan-a cells using forskolin-supplemented medium at 60 to 120 uM incubated for 1 day by Western blotting analysis; assay type: functional, cell-based
Melan-a [12] = assay: Suppression of tyrosinase/TRP-1 complex formation in mouse Melan-a cells using forskolin-supplemented medium at 120 uM incubated for 3 days by Western blotting analysis; assay type: functional, cell-based

## Oc1ccc(/C=C/c2cc(O)cc(O)c2)cc1 [RESVERATROL]
Tyrosinase [1]
  Ki: 2900 µM

## OC[C@H]1O[C@@H](Oc2c(O)cc(O)cc2/C=C/c2ccc(O)cc2)[C@H](O)[C@@H](O)[C@@H]1O
[2]
  inhibition: Dose-dependent effect
Tyrosinase [1]
  Ki: 2800 µM
Tyrosinase [3]
  Ki: 2500 µM
[4]
  inhibition: Dose-dependent effect
[5]
  inhibition: Dose-dependent effect
[6]
  Activity: 103%
Melan-a [7]
  Activity: inactive
Melan-a [8]
  Activity: inactive
Melan-a [9]
  Activity: inactive
[10]
  inhibition: Dose-dependent effect
[11]
  inhibition: inactive
Melan-a [12]
  inhibition: Active
